Source: ChEMBL document CHEMBL1201862, “PubChem BioAssay data set” (2004)
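Exposure lasted 48 hours, with cells grown in 96-well plates and compounds tested at five concentrations. GI50: concentration for 50% inhibition of growth.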 Activity calls are given as the source filed them. Rule as the data show it: active = GI50 up to about 1.1 µM and inactive = higher.

Experiments:
Test in all cases: NCI tumour cell line growth inhibition, 48 h
[1] = tested on: OVCAR-3
[2] = tested on: Hs-578T
[3] = tested on: PC-3
[4] = tested on: SK-MEL-5
[5] = tested on: CAKI-1
[6] = tested on: SNB-19
[7] = tested on: SK-OV-3
[8] = tested on: SF-539
[9] = tested on: M14
[10] = tested on: HCT-116
[11] = tested on: K562
[12] = tested on: OVCAR-8
[13] = tested on: U-251
[14] = tested on: SF-268
[15] = tested on: SNB-75
[16] = tested on: ACHN
[17] = tested on: T47D
[18] = tested on: SK-MEL-2
[19] = tested on: HCC 2998
[20] = tested on: RXF 393
[21] = tested on: MOLT-4
[22] = tested on: UACC-257
[23] = tested on: DU-145
[24] = tested on: Malme-3M
[25] = tested on: UO-31
[26] = tested on: CCRF-CEM
[27] = tested on: NCI-H460
[28] = tested on: LOX IMVI
[29] = tested on: IGROV-1
[30] = tested on: SR
[31] = tested on: MDA-MB-231
[32] = tested on: HCT-15
[33] = tested on: RPMI-8226
[34] = tested on: SF-295
[35] = tested on: NCI-H226
[36] = tested on: 786-0
[37] = tested on: MDA-MB-435
[38] = tested on: TK-10
[39] = tested on: KM12
[40] = tested on: UACC-62
[41] = tested on: EKVX
[42] = tested on: A549
[43] = tested on: HOP-62
[44] = tested on: MCF7
[45] = tested on: SK-MEL-28
[46] = tested on: SW-620
[47] = tested on: HT-29
[48] = tested on: COLO 205
[49] = tested on: OVCAR-5
[50] = tested on: SN12C
[51] = tested on: MDA-N
[52] = tested on: HL-60
[53] = tested on: HOP-92
[54] = tested on: NCI/ADR-RES
[55] = tested on: NCI-H23
[56] = tested on: OVCAR-4
[57] = tested on: NCI-H522
[58] = tested on: A498

Structure (SMILES): CC1(C)C2CC(c3ccncc3)ON2C(C)(C)N1O (stereo not given)
- GI50 [1]: > 100 µM (inactive)
- GI50 [2]: > 100 µM (inactive)
- GI50 [3]: > 100 µM (inactive)
- GI50 [4]: > 100 µM (inactive)
- GI50 [5]: > 100 µM (inactive)
- GI50 [6]: > 100 µM (inactive)
- GI50 [7]: > 100 µM (inactive)
- GI50 [8]: > 100 µM (inactive)
- GI50 [9]: > 100 µM (inactive)
- GI50 [10]: > 100 µM (inactive)
- GI50 [11]: > 100 µM (inactive)
- GI50 [12]: > 100 µM (inactive)
- GI50 [13]: > 100 µM (inactive)
- GI50 [14]: > 100 µM (inactive)
- GI50 [15]: > 100 µM (inactive)
- GI50 [16]: > 100 µM (inactive)
- GI50 [17]: > 100 µM (inactive)
- GI50 [18]: > 100 µM (inactive)
- GI50 [19]: > 100 µM (inactive)
- GI50 [20]: > 100 µM (inactive)
- GI50 [21]: > 100 µM (inactive)
- GI50 [22]: > 100 µM (inactive)
- GI50 [23]: > 100 µM (inactive)
- GI50 [24]: > 100 µM (inactive)
- GI50 [25]: > 100 µM (inactive)
- GI50 [26]: > 100 µM (inactive)
- GI50 [27]: > 100 µM (inactive)
- GI50 [28]: > 100 µM (inactive)
- GI50 [29]: > 100 µM (inactive)
- GI50 [30]: > 100 µM (inactive)
- GI50 [31]: > 100 µM (inactive)
- GI50 [32]: > 100 µM
- GI50 [33]: > 100 µM (inactive)
- GI50 [34]: > 100 µM (inactive)
- GI50 [35]: > 100 µM (inactive)
- GI50 [36]: > 100 µM (inactive)
- GI50 [37]: > 100 µM (inactive)
- GI50 [38]: > 100 µM (inactive)
- GI50 [39]: > 100 µM (inactive)
- GI50 [40]: > 100 µM (inactive)
- GI50 [41]: > 100 µM (inactive)
- GI50 [42]: > 100 µM (inactive)
- GI50 [43]: > 100 µM (inactive)
- GI50 [44]: > 100 µM (inactive)
- GI50 [45]: > 100 µM (inactive)
- GI50 [46]: > 100 µM (inactive)
- GI50 [47]: > 100 µM (inactive)
- GI50 [48]: > 100 µM (inactive)
- GI50 [49]: > 100 µM (inactive)
- GI50 [50]: > 100 µM (inactive)
- GI50 [51]: > 100 µM (inactive)
- GI50 [52]: > 100 µM (inactive)
- GI50 [53]: > 100 µM (inactive)
- GI50 [54]: > 100 µM (inactive)
- GI50 [55]: > 100 µM (inactive)
- GI50 [56]: > 100 µM (inactive)

Structure (SMILES): Cc1ccc2c(/C=C/c3ccc(N(C)C)cc3)ccnc2c1C
- GI50 [1]: 32.4 µM (inactive)
- GI50 [2]: 43.2 µM (inactive)
- GI50 [3]: 18.7 µM (inactive)
- GI50 [4]: 18.2 µM (inactive)
- GI50 [5]: 27.4 µM (inactive)
- GI50 [6]: > 100 µM (inactive)
- GI50 [7]: 31.1 µM (inactive)
- GI50 [8]: 32.2 µM (inactive)
- GI50 [9]: 51.4 µM (inactive)
- GI50 [10]: 25.2 µM (inactive)
- GI50 [11]: 6.81 µM (inactive)
- GI50 [12]: 24.7 µM (inactive)
- GI50 [13]: 38.7 µM (inactive)
- GI50 [14]: 30.1 µM (inactive)
- GI50 [15]: 15.4 µM (inactive)
- GI50 [16]: 25.8 µM (inactive)
- GI50 [17]: 21.1 µM (inactive)
- GI50 [19]: 27.9 µM (inactive)
- GI50 [20]: 18 µM (inactive)
- GI50 [21]: 38.6 µM (inactive)
- GI50 [22]: 26.8 µM (inactive)
- GI50 [23]: 48 µM (inactive)
- GI50 [24]: 12.6 µM (inactive)
- GI50 [25]: 19.3 µM (inactive)
- GI50 [26]: 32.9 µM (inactive)
- GI50 [27]: 25.6 µM (inactive)
- GI50 [28]: 28.5 µM (inactive)
- GI50 [31]: 16.6 µM (inactive)
- GI50 [32]: 12.8 µM
- GI50 [33]: 11.1 µM (inactive)
- GI50 [34]: 22.4 µM (inactive)
- GI50 [35]: 30.5 µM (inactive)
- GI50 [36]: 27.4 µM (inactive)
- GI50 [37]: 4.57 µM (inactive)
- GI50 [38]: 16.2 µM (inactive)
- GI50 [39]: 6.78 µM (inactive)
- GI50 [40]: 13.4 µM (inactive)
- GI50 [57]: 19.1 µM (inactive)
- GI50 [41]: 40.4 µM (inactive)
- GI50 [42]: 49.8 µM (inactive)
- GI50 [43]: 30.8 µM (inactive)
- GI50 [44]: 15.7 µM (inactive)
- GI50 [45]: 17.1 µM (inactive)
- GI50 [46]: 20.4 µM (inactive)
- GI50 [47]: 16.6 µM (inactive)
- GI50 [48]: 18.4 µM (inactive)
- GI50 [49]: 64 µM (inactive)
- GI50 [58]: > 100 µM (inactive)
- GI50 [50]: 20.6 µM (inactive)
- GI50 [51]: 3.99 µM (inactive)
- GI50 [52]: 21.2 µM (inactive)
- GI50 [53]: 15.1 µM (inactive)
- GI50 [54]: 33.2 µM (inactive)
- GI50 [55]: 55.3 µM (inactive)

Structure (SMILES): COc1ccc2[nH]c3c(c2c1)CCn1c-3nc2ccccc2c1=O
- GI50 [2]: > 25 µM (inactive)
- GI50 [3]: > 25 µM (inactive)
- GI50 [4]: > 25 µM (inactive)
- GI50 [6]: > 25 µM (inactive)
- GI50 [7]: > 25 µM (inactive)
- GI50 [8]: > 25 µM (inactive)
- GI50 [9]: > 25 µM (inactive)
- GI50 [10]: > 25 µM (inactive)
- GI50 [11]: > 25 µM (inactive)
- GI50 [12]: > 25 µM (inactive)
- GI50 [13]: > 25 µM (inactive)
- GI50 [14]: > 25 µM (inactive)
- GI50 [15]: > 25 µM (inactive)
- GI50 [16]: > 25 µM (inactive)
- GI50 [17]: > 25 µM (inactive)
- GI50 [19]: > 25 µM (inactive)
- GI50 [21]: > 25 µM (inactive)
- GI50 [22]: > 25 µM (inactive)
- GI50 [25]: > 25 µM (inactive)
- GI50 [26]: > 25 µM (inactive)
- GI50 [27]: > 25 µM (inactive)
- GI50 [29]: > 25 µM (inactive)
- GI50 [30]: > 25 µM (inactive)
- GI50 [31]: > 25 µM (inactive)
- GI50 [32]: > 25 µM
- GI50 [33]: > 25 µM (inactive)
- GI50 [34]: > 25 µM (inactive)
- GI50 [36]: > 25 µM (inactive)
- GI50 [37]: > 25 µM (inactive)
- GI50 [38]: > 25 µM (inactive)
- GI50 [39]: > 25 µM (inactive)
- GI50 [57]: > 25 µM (inactive)
- GI50 [41]: > 25 µM (inactive)
- GI50 [42]: > 25 µM (inactive)
- GI50 [43]: > 25 µM (inactive)
- GI50 [44]: > 25 µM (inactive)
- GI50 [45]: > 25 µM (inactive)
- GI50 [46]: > 25 µM (inactive)
- GI50 [48]: > 25 µM (inactive)
- GI50 [49]: > 25 µM (inactive)
- GI50 [50]: > 25 µM (inactive)
- GI50 [51]: > 25 µM (inactive)
- GI50 [52]: > 25 µM (inactive)
- GI50 [54]: > 25 µM (inactive)
- GI50 [56]: > 25 µM (inactive)
